{
  "source": "patent US4033823A",
  "about": "“Process to produce lysocellin” (Hoffmann-La Roche Inc., priority 1976, dated 1977)",
  "origin": "cited, not measured here",
  "key": {"[1]": {"system": "Antibiotic resistant S. aureus", "details": "S. aureus resistant to streptomycin, erythromycin, chloramphenicol and penicillin"}, "[2]": {"details": "mice, intraperitoneally"}, "Bacillus subtilis [3]": {"system": "Bacillus subtilis", "details": "Bacillus subtilis grown on liquid medium"}, "[4]": {"system": "Antibiotic resistant E. coli", "details": "E. coli resistant to streptomycin, chloramphenicol, kanamycin, tetracyclin and sulfonamide"}, "[5]": {"details": "66% dimethylformamide"}, "[6]": {"system": "Staphylococcus aureus FDA 209P"}, "staphylococcus aureus": {"system": "staphylococcus aureus", "details": "intraperitoneal administration"}, "Bacillus subtilis [7]": {"system": "Bacillus subtilis"}, "[8]": {"system": "antibiotic resistant Staphylococcus aureus"}, "fungi": {"system": "fungi", "details": "some fungi"}},
  "data": [
    {"substance": "Lysocellin", "values": [
      {"measurement": "Minimum inhibitory Concentration", "setting": "[1]", "result": 4, "unit": "µg/mL"},
      {"measurement": "Minimum inhibitory Concentration", "setting": "Pseudomonas aeruginosa", "result": "> 100", "unit": "µg/mL"},
      {"measurement": "Minimum inhibitory Concentration", "setting": "Shigella dysenteriae", "result": "> 100", "unit": "µg/mL"},
      {"measurement": "Minimum inhibitory Concentration", "setting": "Botrytis cinerea", "result": 50, "unit": "µg/mL"},
      {"measurement": "LD50", "setting": "[2]", "result": "about 70 mg/kg"},
      {"measurement": "Antimicrobial activity", "setting": "gram-positive bacteria", "result": "active"},
      {"measurement": "bacterial lysis", "setting": "Bacillus subtilis [3]", "result": "caused bacterial lysis"},
      {"measurement": "Minimum inhibitory Concentration", "setting": "Escherichia coli", "result": "> 100", "unit": "µg/mL"},
      {"measurement": "Antimicrobial activity", "setting": "gram-negative bacteria", "result": "not active"},
      {"measurement": "Minimum inhibitory Concentration", "setting": "[4]", "result": "> 100", "unit": "µg/mL"},
      {"measurement": "Minimum inhibitory Concentration", "setting": "Salmonella typhimurium", "result": "> 100", "unit": "µg/mL"},
      {"measurement": "Minimum inhibitory Concentration", "setting": "Sarcina lutea", "result": 10, "unit": "µg/mL"},
      {"measurement": "Minimum inhibitory Concentration", "setting": "Mycobacterium smegmatis", "result": 20, "unit": "µg/mL"},
      {"measurement": "pKa'", "setting": "[5]", "result": 6.6},
      {"measurement": "Minimum inhibitory Concentration", "setting": "Alternaria kikuchiana", "result": 100, "unit": "µg/mL"},
      {"measurement": "Minimum inhibitory Concentration", "setting": "[6]", "result": 10, "unit": "µg/mL"},
      {"measurement": "activity against staphylococcus aureus infection in mice", "setting": "staphylococcus aureus", "result": "inactive"},
      {"measurement": "Minimum inhibitory Concentration", "setting": "Bacillus subtilis [7]", "result": 10, "unit": "µg/mL"},
      {"measurement": "Minimum inhibitory Concentration", "setting": "Fusarium oxysporum", "result": 100, "unit": "µg/mL"},
      {"measurement": "Minimum inhibitory Concentration", "setting": "Helminthosporium oryzae", "result": 50, "unit": "µg/mL"},
      {"measurement": "Antimicrobial activity", "setting": "[8]", "result": "active"},
      {"measurement": "Antimicrobial activity", "setting": "fungi", "result": "active against some fungi"}
    ]}
  ]
}
